Columns and labels:
[1] = stability study of anhydrous azithromycin, normal storage at 25±2° C. at 60±5% relative humidity; format: physicochemical
[2] = accelerated stability study of anhydrous azithromycin, storage at 40±2° C. at 75±5% relative humidity; format: physicochemical
[3] = after 12 months of storage at 25±2° C. at 60±5% relative humidity
[4] = after 3 months of storage at 40±2° C. at 75±5% relative humidity

SMILES: CCC1OC(=O)C(C)C(O[C@H]2C[C@@](C)(OC)[C@@H](O)C(C)O2)C(C)[C@@H](OC2OC(C)CC(N(C)C)[C@H]2O)[C@@](C)(O)C[C@@H](C)CN(C)[C@H](C)[C@@H](O)[C@]1(C)O (stereo partly drawn) [anhydrous azithromycin, (2R,3S,4R,5R,5R,10R,11R,12S,13S,14R)-13-[(2,6-dideoxy-3-C-methyl-3-O-methyl-a-L-ribo-hexopyranosyl)oxy]-2-ethyl-3,4,10-trihydroxy-3,5,6,8,10,12,14-heptamethyl-11-[[3,4,6-trideoxy-3-(dimethylamino)-b-D-xylo-hexopyranosyl]oxy]-1-oxa-6-azacyclopentadecan-15-one]
- moisture content after storage [1, 3]: ≤ 0.6%
- purity by HPLC after storage [1, 3]: more than 99%
- time for which the form is stable ([1]; normal stability studies): more than 18 months
- change in the related substance content on storage ([1]; stored at 25±2° C. at 60±5% relative humidity): no change
- time for which the form is stable ([2]; accelerated stability studies): more than 3 months
- moisture content after storage [2, 4]: ≤ 0.6%
- purity by HPLC after storage [2, 4]: more than 98%
- change in the related substance content on storage ([2]; stored at 40±2° C. at 75±5% relative humidity): no change
